From US10828303B2, “Composition comprising combination of TRH analog with arundic acid, and pharmaceutically acceptable salt of arundic acid” (Brivention Pharmaceutical (Shanghai) Inc., priority 2016, dated 2020)
Entries after “also recorded” stand apart in the source; their conditions may differ. Like-named read-outs stand apart in the source and are kept apart here.

Columns and labels:
[1] = system: patients with Alzheimer's disease or patients with cerebrovascular dementia; conditions: reported in literature; cited from earlier work
[2] = Approximate solubility by manual dilution and visual observation; assay type: physicochemical; conditions: 25° C.; for solubility: thermodynamic from solid, read-out: Solubility at 25° C. S
Experimental: The approximate solubility of the calcium salt in different solvents at 25° C. was tested by manual dilutions in combination with visual observation.

[3] = Crystal polymorph screening by the heating method; assay type: physicochemical; conditions: open vial, oven 60° C. or 80° C.
Experimental: 30 mg of the compound of Synthesis Example 12 was placed in an open vial, and incubated in an oven heated to 60° C. or 80° C. for 19 hours or for 91 hours. After completion of the incubation, XRPD analysis and polarizing microscope observation were performed. FIG. 26 and FIG. 27 show the results.

## NC(=O)[C@@H]1CCCN1C(=O)[C@H](Cc1cnc[nH]1)NC(=O)[C@@H]1CCC(=O)N1 [TRH]
[1]
  Effect on arousal, mood, semantic memory in patients: improve the level of arousal, mood, semantic memory

## CCCCCC[C@@H](CCC)C(=O)[O][Ca][O]C(=O)[C@@H](CCC)CCCCCC [Compound of Synthesis Example 12, calcium (R)-2-propyloctanoate (S)-2-propyloctanoate]
[2]; 2-propanol (printed 2-Promanol), organic solvent or mixture, 2-Promanol
  solubility: > 210 mg/mL
[2]; different solvents
  Solubility in words: poorly soluble in water; also recorded: dissolved in ethanol, 2-propanol, MtBE, EA, and THF
[2]; organic solvent or mixture, Acetone
  solubility: < 1.7 mg/mL
[2]; organic solvent or mixture, CAN
  solubility: < 1.5 mg/mL
[2]; organic solvent or mixture, EA
  solubility: > 199 mg/mL
[2]; organic solvent or mixture, Ethanol
  solubility: > 185 mg/mL
[2]; organic solvent or mixture, MEK
  solubility: 94.4 to 189 mg/mL
[2]; organic solvent or mixture, MtBE
  solubility: > 215 mg/mL
[2]; organic solvent or mixture, THF
  solubility: > 198 mg/mL
[2]; Water
  solubility: < 1 mg/mL
[3]; 19 hours
  Changes in morphology or XRPD pattern on heating: no changes in morphology or XRPD pattern were observed
[3]; 91 hours
  Morphological changes on heating: no morphological changes of the compound were observed
